What is called inhibition is the percentage by which the read-out fell short of the control. The IC50 is the concentration at which inhibition is half-maximal.

Like-named read-outs stand apart in the source and are kept apart here.

Consider one compound from patent publication US9066948B2, “Oxadiazolo[3,2-a]pyrimidines and thiadiazolo[3,2-a]pyrimidines” (THE UNITED STATES OF AMERICA AS REPRESENTED BY THE …, priority 2010, dated 2015).

One experiment deals with T1, purified αIIbβ3 (Homo sapiens, UniProt P05106+P08514).
T1 construct: αIIbβ3 is purified from outdated single donor platelet concentrates obtained from the New York Blood Center; tissue New York Blood Center; host or cells: outdated single donor platelet concentrates
T1 sequence (P08514 32-887 limits assumed): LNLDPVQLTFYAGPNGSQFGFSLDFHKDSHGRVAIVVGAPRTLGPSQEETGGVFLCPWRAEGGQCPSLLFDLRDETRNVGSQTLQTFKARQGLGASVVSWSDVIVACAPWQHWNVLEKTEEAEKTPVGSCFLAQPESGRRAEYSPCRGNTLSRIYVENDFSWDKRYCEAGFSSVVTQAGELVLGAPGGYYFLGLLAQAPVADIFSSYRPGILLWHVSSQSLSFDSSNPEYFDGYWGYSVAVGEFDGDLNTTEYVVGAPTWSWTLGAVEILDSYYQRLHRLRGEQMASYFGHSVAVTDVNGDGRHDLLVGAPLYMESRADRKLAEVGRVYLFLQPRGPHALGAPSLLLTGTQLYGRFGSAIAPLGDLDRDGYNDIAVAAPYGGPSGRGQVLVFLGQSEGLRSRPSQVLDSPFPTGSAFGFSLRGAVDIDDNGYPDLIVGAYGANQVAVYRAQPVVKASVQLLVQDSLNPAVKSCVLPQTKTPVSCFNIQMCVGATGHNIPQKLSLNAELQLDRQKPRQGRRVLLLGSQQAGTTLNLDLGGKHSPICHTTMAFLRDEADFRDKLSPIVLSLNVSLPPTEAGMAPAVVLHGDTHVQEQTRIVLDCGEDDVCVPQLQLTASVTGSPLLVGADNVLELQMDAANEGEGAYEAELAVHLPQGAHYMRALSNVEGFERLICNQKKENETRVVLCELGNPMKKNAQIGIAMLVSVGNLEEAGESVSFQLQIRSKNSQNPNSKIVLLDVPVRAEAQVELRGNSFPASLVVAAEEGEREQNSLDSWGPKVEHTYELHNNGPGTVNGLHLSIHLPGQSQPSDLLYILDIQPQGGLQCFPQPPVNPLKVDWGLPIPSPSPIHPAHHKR
T1 sequence (P08514 891-1039 partner limits assumed): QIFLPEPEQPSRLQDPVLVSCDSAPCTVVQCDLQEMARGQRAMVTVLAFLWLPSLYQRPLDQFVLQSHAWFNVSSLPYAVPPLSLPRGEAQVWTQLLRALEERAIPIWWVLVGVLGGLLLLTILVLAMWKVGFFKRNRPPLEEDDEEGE
T1 sequence (P05106 27-788): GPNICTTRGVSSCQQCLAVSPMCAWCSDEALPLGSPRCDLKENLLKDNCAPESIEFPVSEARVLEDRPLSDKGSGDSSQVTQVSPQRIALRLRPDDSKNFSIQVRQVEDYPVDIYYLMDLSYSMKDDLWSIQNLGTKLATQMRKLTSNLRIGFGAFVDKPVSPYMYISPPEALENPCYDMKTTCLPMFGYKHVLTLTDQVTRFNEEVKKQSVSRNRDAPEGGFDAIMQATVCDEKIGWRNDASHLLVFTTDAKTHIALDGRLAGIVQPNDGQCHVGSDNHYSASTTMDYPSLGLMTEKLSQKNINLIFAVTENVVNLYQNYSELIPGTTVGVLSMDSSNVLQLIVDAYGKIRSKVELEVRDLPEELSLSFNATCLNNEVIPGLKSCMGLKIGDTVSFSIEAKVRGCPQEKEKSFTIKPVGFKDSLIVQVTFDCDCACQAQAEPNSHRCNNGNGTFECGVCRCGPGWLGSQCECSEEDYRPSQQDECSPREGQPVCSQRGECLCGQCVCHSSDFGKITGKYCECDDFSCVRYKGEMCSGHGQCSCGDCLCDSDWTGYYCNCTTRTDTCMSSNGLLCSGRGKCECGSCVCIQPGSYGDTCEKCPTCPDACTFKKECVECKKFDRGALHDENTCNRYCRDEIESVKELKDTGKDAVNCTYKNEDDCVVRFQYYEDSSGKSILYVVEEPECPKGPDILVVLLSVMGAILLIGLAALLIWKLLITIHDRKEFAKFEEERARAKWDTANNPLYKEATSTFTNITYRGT
The experiment in a line: Extension of purified αIIbβ3 in nanodiscs by negative staining electron microscopy. The note with it: concentrations up to 10 μM. The protocol:
In brief, the His-tagged membrane scaffold protein is prepared as a recombinant protein in E. coli and purified by Nickel affinity chromatography and anion exchange chromatography. Final assembly consists of solubilizing an equimolar mixture of 1,2-dimyristoyl-sn-glycero-3-phosphocholine and 1,2-dimyristoyl-sn-glycero-3-phospho-(1′-rac-glycerol) in octylglucoside and cholate and then adding the purified αIIbβ3. The detergents are removed with macroporous polymeric beads (Bio-Bead SM-2) and then the αIIbβ3 nanodiscs are separated from the empty nanodiscs by gel filtration.
αIIbβ3 nanodiscs are treated with eptifibatide, tirofiban, 2-ethyl-7-(piperazin-1-yl)-5H-[1,3,4]thiadiazolo-[3,2-a]pyrimidin-5-one of U.S. Ser. No. 12/514,286, or the compound of Example 27 of the current invention for 1 hour at room temperature at concentrations up to 100 μM for 2-ethyl-7-(piperazin-1-yl)-5H-[1,3,4]thiadiazolo-[3,2-a]pyrimidin-5-one (a compound claimed in U.S. Ser. No. 12/514,286) and at concentrations up to 10 μM for 2-amino-N-(3-(5-oxo-7-(piperazin-1-yl)-5H-[1,3,4]thiadiazolo[3,2-a]pyrimidin-2-yl)phenyl)acetamide of Example 27. Samples are loaded onto carbon-coated copper grids that are glow-discharged by a carbon coating unit (Edwards; Crowley, UK), and then stained with 2% uranyl acetate, followed by drying. Imaging of αIIbβ3 nanodiscs is performed using a JOEL JEM 100CX transmission electron microscope (Jeol Ltd; Tokyo, Japan) at 80 kV and magnifications of 33,000× and 50,000×. Individual nanodiscs containing αIIbβ3 are manually selected for analysis using Image J (NIH, Bethesda, Md.). The distance from the bottom of the nanodisc to the height of the αIIbβ3 complex (nanodisc-integrin length; NIL) is measured as an indicator of integrin extension. The frequency distribution of NIL values is then analyzed for untreated αIIbβ3 nanodiscs and αIIbβ3 nanodiscs in the presence of different compounds.

A further experiment has as its system washed platelets. The experiment can be described thus: Effect of Mg2+ on washed platelet aggregation induced by thrombin receptor activating peptide (SFLLRN). Format: cell-based, human. The note with it: compound at 1 μM; SFLLRN 10 μM. The protocol: Washed platelets are resuspended in buffer containing fibrinogen (200 μg/ml) and 1 mM […] in combination with either 1 mM or 20 mM Mg^2+. Aggregation is induced by adding a thrombin receptor activating peptide (SFLLRN) at 10 μM.

Experiment [1] concerns platelets. The experiment can be described thus: Platelet adhesion assay: calcein-labeled platelets on fibrinogen-coated wells. Format: cell-based. As to conditions: Homo sapiens, mean±SD. The protocol:
Thirty microliters of human fibrinogen (50 μg/mL) in Tris/saline (100 mM NaCl, 50 mM Tris/HCl, pH 7.4; American Diagnostica, Stamford, Conn.) are added to black, clear-bottom, untreated polystyrene, nonsterile 384-well microtiter plate wells (Corning no. 3711; Acton, Mass.). […] An additional wash is performed using HBMT with 1 mM MgCl2 and 2 mM CaCl2. Calcein-labeled platelets (final concentration 1×10^11/L) are treated with selected Compounds of the Invention (final concentration of 100 μM, 30 μM, 10 μM or 1 μM) at 22° C. for 20 minutes. Thirty microliters of platelets are then added to the wells. After 1 hour of adhesion, wells are washed 3 times with HBMT-1 mM MgCl2/2 mM CaCl2 and the plates are read by a fluorescent microtiter plate reader (Envision; Perkin Elmer) to detect calcein fluorescence (490 nm excitation and 515 nm emission). Negative controls consist of wells containing platelets without compounds of the invention.

The subject of experiment [2] is platelets. The experiment can be described thus: Platelet aggregation assay: ADP-induced, platelet-rich plasma. Format: cell-based, human. The note with it: for IC50: Homo sapiens, Platelet, n=4. As to the method: […] After 30 seconds in the aggregometer (Kowa AF-10E; Tokyo, Japan) at 37° C. with stirring, ADP (5-20 μM) is added to induce aggregation and the light transmittance is measured for 8 minutes. The initial slopes of aggregation in the presence of different concentrations of the Compound being tested are used to generate an IC50.

In a further experiment the test system is WT mouse platelets. The experiment can be described thus: ADP-induced platelet aggregation, mouse PRP (Example 45). Format: cell-based. As to the method: Blood may be drawn via cardiac puncture from anesthetized Sprague Dawley rats (Taconic, Hudson, N.Y.), WT C57B1/6 mice (Jackson Laboratories, Bar Harbor, Me.), and mice expressing hαIIb/mβ3 and diluted 1:1 with a mixture of 4 parts 0.165 […], pH 7.4 containing 2 mM CaCl2 and 1 mM MgCl2. Blood from consenting human volunteers is obtained from a peripheral vein using a 19 gauge needle and anticoagulated with 1:10 vol 3.8% sodium citrate. Platelet-rich plasma (PRP) may be isolated by centrifugation at 22° C. at 350 g for 10 minutes (rats); 250 g for 2.5 minutes (mice); or 650 g for 4 minutes (human). Mouse PRP samples may be adjusted to 400,000 platelets/μl with the buffer used for dilution and human PRP may be adjusted to 300,000 platelets/μl with platelet-poor plasma. […] Platelet aggregation may be induced by adding to PRP adenosine diphosphate (ADP) at 30 μM (rats and WT mice), 20 or 30 μM (hαIIb/mβ3 mice), or 5 μM (humans), and light transmission may be measured over time in an aggregometer (Kowa AG-10E, Tokyo, Japan) with stirring. Percent inhibition may be calculated by comparing the initial slope of untreated samples to the samples treated with the Compounds of the Invention.

Consider `NCC(=O)Nc1cccc(-c2nn3c(=O)cc(N4CCNCC4)nc3s2)c1` [Example 27, 2-amino-N-(3-(5-oxo-7-(piperazin-1-yl)-5H-[1,3,4]thiadiazolo[3,2-a]pyrimidin-2-yl)phenyl)acetamide], for which the “shift of nanodisc-integrin length (NIL) values / receptor extension” value on purified αIIbβ3 was “do not induce receptor extension”. Further, in the experiment on washed platelets, the “effect of Mg2+ on the inhibition of SFLLRN-induced platelet aggregation” value is “clearly attenuated at 20 mM Mg^2+”. Moreover, the inhibition at 10 µM in the experiment on platelets [1] (10 μM) was 66 ± 10%. Further, in the experiment with platelets [1] (30 μM, 5 separate experiments), the inhibition at 30 µM is 80 ± 13%. The inhibition at 100 µM in the experiment on platelets [1] (100 μM, 5 separate experiments) is 83 ± 7%. Moreover, the “potency in inhibiting platelet aggregation relative to 2-ethyl-7-(piperazin-1-yl)-5H-[1,3,4]thiadiazolo-[3,2-a]pyrimidin-5-one” value in the experiment on platelets [2] is listed as “more than one hundred-fold more potent”. For the same compound, the IC50 was determined as 220 nM with platelets [2] (PPACK instead of citrate, read-out: IC50, ADP-induced platelet aggregation with PPACK as anticoagulant) and 90 ± 20 nM in the experiment on platelets [2] (citrate anticoagulant, read-out: IC50, ADP-induced platelet aggregation of citrated PRP). For the same compound, the “IC50 with PPACK relative to citrate” value in the experiment on platelets [2] (PPACK vs citrate) is listed as roughly 3 fold. Besides, the “selectivity for human compared to mouse or rat αIIbβ3” value with WT mouse platelets is “selective for human WIND compared to mouse or rat αIIbβ3”. Besides, the “inhibition of mouse platelet aggregation induced by ADP” value with WT mouse platelets (1 μM) was “does not inhibit either mouse or rat platelet aggregation”.
